Data on 4 molecules can be found in ChEMBL document CHEMBL1938312, “Design and combinatorial synthesis of a novel kinase-focused library using click chemistry-based fragment assembly” (Bioorg Med Chem Lett, 2012).

Active and inactive are the calls of the source. The calls are words filed in the database; no cut-off is given here.

Test [1] deals with Epidermal growth factor receptor (Homo sapiens) (UniProt P00533). The test can be described thus: Inhibition of EGFR at 10 uM by colorimetric analysis.
The target in test [2] is Fibroblast growth factor receptor 1 (Homo sapiens) (UniProt P11362). The test can be described thus: Inhibition of FGFR1 at 10 uM by colorimetric analysis.
In test [3] the target is Insulin-like growth factor 1 receptor (Homo sapiens) (UniProt P08069). Nature of the test: Inhibition of IGF1R at 10 uM by colorimetric analysis.
Test [4] deals with T1, Tyrosine-protein kinase ITK/TSK (Homo sapiens) (UniProt Q08881).
T1 sequence (whole entry): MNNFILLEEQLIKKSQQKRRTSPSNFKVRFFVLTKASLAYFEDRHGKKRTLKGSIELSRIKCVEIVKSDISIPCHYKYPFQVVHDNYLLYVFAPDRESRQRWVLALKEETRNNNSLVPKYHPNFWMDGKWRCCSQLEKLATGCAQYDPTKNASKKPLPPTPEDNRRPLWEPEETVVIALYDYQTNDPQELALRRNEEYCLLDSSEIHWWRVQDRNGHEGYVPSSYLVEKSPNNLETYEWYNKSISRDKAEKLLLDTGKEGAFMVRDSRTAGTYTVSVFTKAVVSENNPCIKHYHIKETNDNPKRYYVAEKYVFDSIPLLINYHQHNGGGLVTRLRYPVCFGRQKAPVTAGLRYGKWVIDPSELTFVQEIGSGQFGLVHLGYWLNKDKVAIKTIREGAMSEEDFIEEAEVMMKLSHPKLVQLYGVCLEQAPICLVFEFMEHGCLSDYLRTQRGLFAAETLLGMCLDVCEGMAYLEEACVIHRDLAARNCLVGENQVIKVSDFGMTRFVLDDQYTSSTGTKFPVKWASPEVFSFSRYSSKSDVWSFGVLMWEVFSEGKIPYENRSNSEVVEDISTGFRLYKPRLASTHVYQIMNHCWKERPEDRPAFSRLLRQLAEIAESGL
Nature of the test: Inhibition of ITK at 10 uM by colorimetric analysis.

In test [5] the target is Vascular endothelial growth factor receptor 2 (Homo sapiens) (UniProt P35968). The test can be described thus: Inhibition of KDR at 10 uM by colorimetric analysis.
In test [6] the target is Tyrosine-protein kinase Lck (Homo sapiens) (UniProt P06239). Nature of the test: Inhibition of LCK at 10 uM by colorimetric analysis.
Test [7] concerns the target Hepatocyte growth factor receptor (Homo sapiens) (UniProt P08581). Nature of the test: Inhibition of MET at 10 uM by colorimetric analysis.
Test [8] concerns the target Platelet-derived growth factor receptor alpha (Homo sapiens) (UniProt P16234). Nature of the test: Inhibition of PDGFRalpha at 10 uM by colorimetric analysis.
Test [9] concerns the target Tyrosine-protein kinase SYK (Homo sapiens) (UniProt P43405). The test can be described thus: Inhibition of SYK at 10 uM by colorimetric analysis.
Test [10] deals with Angiopoietin-1 receptor (Homo sapiens) (UniProt Q02763). Nature of the test: Inhibition of TIE2 at 10 uM by colorimetric analysis.
For test [11], the target named is T2, Tyrosine-protein kinase receptor TYRO3 (Homo sapiens) (UniProt Q06418).
T2 sequence (whole entry): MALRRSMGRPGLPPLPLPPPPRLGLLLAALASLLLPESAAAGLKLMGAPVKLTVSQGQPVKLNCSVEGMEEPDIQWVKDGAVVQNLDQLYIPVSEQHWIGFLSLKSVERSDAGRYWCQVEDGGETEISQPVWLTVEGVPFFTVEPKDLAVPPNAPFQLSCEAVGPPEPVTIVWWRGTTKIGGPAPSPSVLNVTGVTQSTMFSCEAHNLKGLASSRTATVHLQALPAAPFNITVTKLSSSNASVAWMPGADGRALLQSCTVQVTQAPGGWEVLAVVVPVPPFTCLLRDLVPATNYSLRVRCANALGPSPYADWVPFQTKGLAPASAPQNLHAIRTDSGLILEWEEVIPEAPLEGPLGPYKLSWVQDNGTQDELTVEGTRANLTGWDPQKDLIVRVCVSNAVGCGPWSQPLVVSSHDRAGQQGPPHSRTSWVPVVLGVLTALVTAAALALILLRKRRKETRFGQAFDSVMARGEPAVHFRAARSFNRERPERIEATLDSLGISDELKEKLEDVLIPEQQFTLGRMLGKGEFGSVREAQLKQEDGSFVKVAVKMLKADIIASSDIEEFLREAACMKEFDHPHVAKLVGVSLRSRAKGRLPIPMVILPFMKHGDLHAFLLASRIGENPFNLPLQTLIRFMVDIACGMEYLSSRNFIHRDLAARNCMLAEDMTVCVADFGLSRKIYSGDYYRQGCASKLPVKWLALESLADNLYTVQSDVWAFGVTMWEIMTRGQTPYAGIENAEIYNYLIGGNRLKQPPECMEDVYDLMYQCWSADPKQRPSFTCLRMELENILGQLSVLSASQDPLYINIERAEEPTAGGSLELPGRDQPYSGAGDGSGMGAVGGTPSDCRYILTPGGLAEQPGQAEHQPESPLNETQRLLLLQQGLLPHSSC
The test can be described thus: Inhibition of TYRO3 at 10 uM by colorimetric analysis.

Test [12] concerns the target 5'-AMP-activated protein kinase catalytic subunit alpha-1 (Homo sapiens) (UniProt Q13131). Nature of the test: Inhibition of AMPKalpha1 at 10 uM by colorimetric analysis.
Test [13] has as its target T3, Calcium/calmodulin-dependent protein kinase type IV (Homo sapiens) (UniProt Q16566).
T3 sequence (whole entry): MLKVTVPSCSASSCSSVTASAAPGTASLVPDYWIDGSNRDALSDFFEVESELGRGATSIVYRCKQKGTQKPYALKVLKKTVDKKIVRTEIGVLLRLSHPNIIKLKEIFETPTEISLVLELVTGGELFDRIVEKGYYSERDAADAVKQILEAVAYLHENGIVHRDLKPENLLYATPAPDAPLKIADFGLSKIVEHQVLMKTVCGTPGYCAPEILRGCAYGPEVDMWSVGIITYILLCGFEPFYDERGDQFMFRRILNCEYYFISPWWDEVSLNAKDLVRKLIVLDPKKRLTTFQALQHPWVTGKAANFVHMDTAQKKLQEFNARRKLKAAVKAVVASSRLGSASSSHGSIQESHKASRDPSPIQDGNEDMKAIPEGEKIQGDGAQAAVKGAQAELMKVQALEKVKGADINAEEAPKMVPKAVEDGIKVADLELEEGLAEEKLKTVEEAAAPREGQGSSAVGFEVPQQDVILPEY
Nature of the test: Inhibition of CaMK4 at 10 uM by colorimetric analysis.

Test [14] has as its target Casein kinase I isoform epsilon (Homo sapiens) (UniProt P49674). The test can be described thus: Inhibition of CK1epsilon at 10 uM by colorimetric analysis.
For test [15], the target named is Dual specificity tyrosine-phosphorylation-regulated kinase 1B (Homo sapiens) (UniProt Q9Y463). The test can be described thus: Inhibition of DYRK1B at 10 uM by colorimetric analysis.
The target of test [16] is Protein kinase C alpha type (Homo sapiens) (UniProt P17252). Nature of the test: Inhibition of PKCalpha at 10 uM by colorimetric analysis.
Test [17] concerns the target Rho-associated protein kinase 1 (Homo sapiens) (UniProt Q13464). The test can be described thus: Inhibition of ROCK1 at 10 uM by colorimetric analysis.

Sequence of Rho-associated protein kinase 1 (Homo sapiens) (Q13464 2-1354 limits assumed): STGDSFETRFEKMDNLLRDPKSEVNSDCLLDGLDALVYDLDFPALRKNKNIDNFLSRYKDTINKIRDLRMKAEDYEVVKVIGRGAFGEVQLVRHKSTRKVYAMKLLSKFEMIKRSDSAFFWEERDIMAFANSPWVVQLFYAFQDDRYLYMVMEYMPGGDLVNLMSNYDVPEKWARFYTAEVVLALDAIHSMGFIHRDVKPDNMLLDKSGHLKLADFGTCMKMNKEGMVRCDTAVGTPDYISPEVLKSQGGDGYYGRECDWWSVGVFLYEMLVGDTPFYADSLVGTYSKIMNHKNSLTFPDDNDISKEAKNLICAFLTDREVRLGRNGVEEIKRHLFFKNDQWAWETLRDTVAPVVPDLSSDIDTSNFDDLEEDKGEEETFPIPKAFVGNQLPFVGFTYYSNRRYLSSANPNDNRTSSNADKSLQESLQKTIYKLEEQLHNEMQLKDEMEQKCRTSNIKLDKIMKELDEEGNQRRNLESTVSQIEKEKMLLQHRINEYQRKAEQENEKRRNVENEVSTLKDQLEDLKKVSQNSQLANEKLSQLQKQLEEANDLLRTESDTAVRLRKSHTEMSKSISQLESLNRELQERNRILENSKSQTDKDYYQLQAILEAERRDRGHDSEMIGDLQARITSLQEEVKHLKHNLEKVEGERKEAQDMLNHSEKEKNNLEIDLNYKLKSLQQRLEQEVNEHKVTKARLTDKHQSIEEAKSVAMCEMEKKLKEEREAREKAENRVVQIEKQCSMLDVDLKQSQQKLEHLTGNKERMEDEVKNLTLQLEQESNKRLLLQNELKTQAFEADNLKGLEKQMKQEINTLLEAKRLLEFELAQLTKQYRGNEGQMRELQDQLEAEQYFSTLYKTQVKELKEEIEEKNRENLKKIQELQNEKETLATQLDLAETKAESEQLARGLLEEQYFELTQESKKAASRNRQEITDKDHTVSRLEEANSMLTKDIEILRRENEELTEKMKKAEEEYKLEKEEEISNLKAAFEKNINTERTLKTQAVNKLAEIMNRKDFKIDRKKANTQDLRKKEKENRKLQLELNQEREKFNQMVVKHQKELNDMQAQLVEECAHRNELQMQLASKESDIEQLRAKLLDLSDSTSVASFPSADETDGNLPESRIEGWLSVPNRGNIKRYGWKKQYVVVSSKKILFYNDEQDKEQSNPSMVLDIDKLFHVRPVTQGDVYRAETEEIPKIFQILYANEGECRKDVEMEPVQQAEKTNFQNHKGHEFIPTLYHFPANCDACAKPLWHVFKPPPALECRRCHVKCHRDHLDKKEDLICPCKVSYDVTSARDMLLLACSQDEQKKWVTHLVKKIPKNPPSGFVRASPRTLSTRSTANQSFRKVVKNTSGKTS
Sequence of Casein kinase I isoform epsilon (Homo sapiens) (P49674 whole entry, looked up, canonical isoform): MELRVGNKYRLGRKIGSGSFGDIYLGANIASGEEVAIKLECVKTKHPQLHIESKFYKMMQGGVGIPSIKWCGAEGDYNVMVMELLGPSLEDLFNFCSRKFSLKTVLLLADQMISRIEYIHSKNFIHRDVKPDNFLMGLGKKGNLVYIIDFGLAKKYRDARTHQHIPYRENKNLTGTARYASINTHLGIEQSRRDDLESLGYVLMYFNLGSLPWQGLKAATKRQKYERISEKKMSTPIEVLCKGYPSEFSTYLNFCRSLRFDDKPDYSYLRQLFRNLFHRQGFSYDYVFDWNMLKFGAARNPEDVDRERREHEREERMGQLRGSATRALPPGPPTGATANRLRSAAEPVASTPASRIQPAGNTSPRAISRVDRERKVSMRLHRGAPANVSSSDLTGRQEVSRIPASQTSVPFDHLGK
Sequence of Insulin-like growth factor 1 receptor (Homo sapiens) (P08069 31-736 limits assumed): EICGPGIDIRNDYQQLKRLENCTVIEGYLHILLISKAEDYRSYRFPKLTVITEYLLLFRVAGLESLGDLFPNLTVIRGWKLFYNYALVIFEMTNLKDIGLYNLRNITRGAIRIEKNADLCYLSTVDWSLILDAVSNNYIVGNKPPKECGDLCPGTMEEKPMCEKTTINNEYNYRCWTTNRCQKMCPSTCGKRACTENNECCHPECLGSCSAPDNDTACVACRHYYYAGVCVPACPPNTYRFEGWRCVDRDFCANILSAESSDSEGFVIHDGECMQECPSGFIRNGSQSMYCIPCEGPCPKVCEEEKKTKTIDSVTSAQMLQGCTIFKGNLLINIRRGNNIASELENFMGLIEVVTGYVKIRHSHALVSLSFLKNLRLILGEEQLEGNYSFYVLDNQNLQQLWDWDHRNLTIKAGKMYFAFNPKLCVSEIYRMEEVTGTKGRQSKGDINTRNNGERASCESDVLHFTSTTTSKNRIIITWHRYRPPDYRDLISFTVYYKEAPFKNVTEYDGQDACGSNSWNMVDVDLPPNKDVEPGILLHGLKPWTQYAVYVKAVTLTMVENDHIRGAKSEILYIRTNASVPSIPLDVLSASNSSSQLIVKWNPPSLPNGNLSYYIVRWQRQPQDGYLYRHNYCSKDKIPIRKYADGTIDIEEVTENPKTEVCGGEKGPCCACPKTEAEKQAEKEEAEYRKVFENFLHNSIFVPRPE
Sequence of Insulin-like growth factor 1 receptor (Homo sapiens) (P08069 741-1367 limits assumed): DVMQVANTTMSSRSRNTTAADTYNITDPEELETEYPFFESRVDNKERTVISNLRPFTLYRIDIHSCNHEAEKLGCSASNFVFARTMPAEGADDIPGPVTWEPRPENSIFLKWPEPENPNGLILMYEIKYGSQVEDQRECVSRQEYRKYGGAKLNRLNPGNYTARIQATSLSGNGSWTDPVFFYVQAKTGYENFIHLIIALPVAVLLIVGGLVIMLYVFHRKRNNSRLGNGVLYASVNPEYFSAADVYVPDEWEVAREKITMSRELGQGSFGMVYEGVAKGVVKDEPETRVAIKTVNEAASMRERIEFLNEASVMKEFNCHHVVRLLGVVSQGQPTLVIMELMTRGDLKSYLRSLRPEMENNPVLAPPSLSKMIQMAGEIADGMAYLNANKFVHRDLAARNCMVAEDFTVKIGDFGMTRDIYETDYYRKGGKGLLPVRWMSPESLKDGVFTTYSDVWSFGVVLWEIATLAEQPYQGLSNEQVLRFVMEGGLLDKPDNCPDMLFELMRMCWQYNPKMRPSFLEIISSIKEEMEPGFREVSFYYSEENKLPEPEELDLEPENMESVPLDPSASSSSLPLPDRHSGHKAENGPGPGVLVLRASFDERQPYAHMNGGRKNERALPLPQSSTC
Sequence of Vascular endothelial growth factor receptor 2 (Homo sapiens) (P35968 whole entry): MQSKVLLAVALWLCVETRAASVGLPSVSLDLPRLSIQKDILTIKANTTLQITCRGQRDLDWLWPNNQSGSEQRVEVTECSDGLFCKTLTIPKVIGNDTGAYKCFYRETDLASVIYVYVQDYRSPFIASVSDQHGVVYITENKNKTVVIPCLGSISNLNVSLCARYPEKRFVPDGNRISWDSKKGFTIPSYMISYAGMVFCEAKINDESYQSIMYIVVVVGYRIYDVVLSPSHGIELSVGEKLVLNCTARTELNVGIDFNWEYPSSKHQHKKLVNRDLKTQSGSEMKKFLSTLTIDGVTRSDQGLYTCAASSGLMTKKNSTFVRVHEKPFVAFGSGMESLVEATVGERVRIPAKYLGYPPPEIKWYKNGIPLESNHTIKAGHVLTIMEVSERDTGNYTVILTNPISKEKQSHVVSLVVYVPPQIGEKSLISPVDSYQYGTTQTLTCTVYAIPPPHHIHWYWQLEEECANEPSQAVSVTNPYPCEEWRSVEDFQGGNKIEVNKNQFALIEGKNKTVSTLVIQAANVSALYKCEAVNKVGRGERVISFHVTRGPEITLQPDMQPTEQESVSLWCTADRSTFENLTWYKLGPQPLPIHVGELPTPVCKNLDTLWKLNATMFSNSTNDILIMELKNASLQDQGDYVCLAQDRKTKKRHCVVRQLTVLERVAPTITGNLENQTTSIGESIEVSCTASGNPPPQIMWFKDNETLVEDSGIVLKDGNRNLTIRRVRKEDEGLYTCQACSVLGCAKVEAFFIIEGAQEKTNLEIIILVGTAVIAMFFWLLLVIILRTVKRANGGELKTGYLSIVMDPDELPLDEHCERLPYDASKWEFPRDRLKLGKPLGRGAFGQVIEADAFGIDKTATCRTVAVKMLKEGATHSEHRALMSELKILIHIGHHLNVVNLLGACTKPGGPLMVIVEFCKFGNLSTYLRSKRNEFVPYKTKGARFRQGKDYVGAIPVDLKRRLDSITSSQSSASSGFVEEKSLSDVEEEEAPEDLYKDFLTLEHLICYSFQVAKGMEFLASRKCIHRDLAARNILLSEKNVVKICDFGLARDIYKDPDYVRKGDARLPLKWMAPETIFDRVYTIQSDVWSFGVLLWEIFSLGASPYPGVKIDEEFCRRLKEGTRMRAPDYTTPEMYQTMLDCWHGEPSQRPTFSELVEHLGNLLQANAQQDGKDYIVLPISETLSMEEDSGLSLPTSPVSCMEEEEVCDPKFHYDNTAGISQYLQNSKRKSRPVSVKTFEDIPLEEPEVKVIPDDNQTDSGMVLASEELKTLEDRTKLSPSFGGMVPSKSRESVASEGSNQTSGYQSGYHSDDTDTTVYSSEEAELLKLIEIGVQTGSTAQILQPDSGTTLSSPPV
Sequence of 5'-AMP-activated protein kinase catalytic subunit alpha-1 (Homo sapiens) (Q13131 whole entry, looked up): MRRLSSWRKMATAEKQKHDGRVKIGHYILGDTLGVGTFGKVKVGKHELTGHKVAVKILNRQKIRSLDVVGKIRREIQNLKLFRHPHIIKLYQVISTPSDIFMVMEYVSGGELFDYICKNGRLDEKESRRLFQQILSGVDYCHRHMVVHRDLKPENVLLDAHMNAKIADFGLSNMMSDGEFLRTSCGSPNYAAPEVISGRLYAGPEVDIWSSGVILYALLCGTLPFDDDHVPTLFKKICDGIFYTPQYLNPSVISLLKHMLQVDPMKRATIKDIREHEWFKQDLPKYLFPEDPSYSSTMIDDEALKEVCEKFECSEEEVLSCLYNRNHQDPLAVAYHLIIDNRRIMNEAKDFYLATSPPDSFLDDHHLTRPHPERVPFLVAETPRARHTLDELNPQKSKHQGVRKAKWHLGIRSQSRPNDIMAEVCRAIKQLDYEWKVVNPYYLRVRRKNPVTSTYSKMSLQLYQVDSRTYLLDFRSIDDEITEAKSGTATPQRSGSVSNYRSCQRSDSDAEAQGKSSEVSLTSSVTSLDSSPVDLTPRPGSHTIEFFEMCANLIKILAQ

Regarding `Clc1ccc(-n2cc(-c3ccncc3)nn2)cc1`, the inhibition entry in test [1], in [2], in [3], in [4], in [5] and in test [6] was “inactive” throughout. Also, the inhibition result in [7], in test [8], in test [9], in [10] and in test [11] was “inactive” throughout. The inhibition result in test [12], in test [13], in test [14], in [15], in test [16] and in [17] was “Active” throughout.

As to `Clc1cccc(-n2nncc2-c2ccncc2)c1`, the inhibition result in test [1], in test [2], in test [3], in test [4], in [5] and in [6] was “inactive” in each case. Moreover, the inhibition entry in test [7], in [8], in [9], in [10] and in test [11] was “inactive” each time. For the same molecule, the inhibition entry in test [12], in test [13], in test [14], in test [15], in test [16] and in [17] was “Active” each time.

Turning to `Clc1ccc(-n2nncc2-c2ccncc2)cc1`, the inhibition result in test [1], in test [2], in test [3], in [4], in test [5] and in [6] was “inactive” in each case. For the same molecule, the inhibition result in test [7], in test [8], in test [9], in test [10] and in test [11] was “inactive” each time. The inhibition result in [12], in [13], in [14], in test [15], in test [16] and in test [17] was “Active” in each case.

On to `Clc1cccc(-n2cc(-c3ccncc3)nn2)c1`, for which the inhibition entry in test [1], in test [2], in [3], in test [4], in test [5] and in [6] was “inactive” throughout. In addition, the inhibition entry in test [7], in test [8], in test [9], in test [10] and in [11] was “inactive” each time. Besides, the inhibition entry in test [12], in test [13], in [14], in test [15], in test [16] and in test [17] was “Active” throughout.
